Measured values reported in patent publication US20230255953A1, “USE OF ROLUPERIDONE IN PREVENTING RELAPSE IN SCHIZOPHRENIA PATIENTS” (Minerva Neurosciences, Inc., priority 2022, published 2023).

Test system: patients with negative symptoms of schizophrenia
Assay: Integrated analysis of Studies #1 and #2 (pooled ITT): PANSS-derived scores (NSFS, total, positive and negative subscales), DB, OL and whole study
Type: in vivo, human
Design: key to NSFS Score change from Baseline, Median: change from Baseline in PANSS NSFS points; higher score = more severe
Details: for NSFS Score change from Baseline, LS mean (SE) / NSFS Score change from Baseline, Mean (SD) / NSFS Score change from Baseline, Median / NSFS Score, Difference (95% CI) in LS mean (vs placebo) / PANSS Negative Subscale Score change from Baseline, LS mean (SE) / PANSS Negative Subscale Score change from Baseline, Mean (SD) / PANSS Negative Subscale Score change from Baseline, Median / PANSS Negative Subscale Score, Difference (95% CI) in LS mean (vs placebo) / PANSS Total Score change from Baseline, LS mean (SE) / PANSS Total Score change from Baseline, Mean (SD) / PANSS Total Score change from Baseline, Median / PANSS Total Score, Difference (95% CI) in LS mean (vs placebo): DB
Description: The primary integrated analysis of the efficacy of Roluperidone compared with placebo for the treatment of negative symptoms of schizophrenia is based on the change from Baseline in the PANSS Marder's negative symptoms factor score (in this document referred to as NSFS) to Week 12. Efficacy is also supported by the analysis of change from Baseline in the PSP Total score and the CGI-S to Week 12.
The PANSS was assessed at the time points described in Table 4.
The PANSS-derived endpoints used in these studies and the integrated analyses are described in Table 5A and a summary of the individual PANSS items used by physicians and clinicians to measure the severity of the symptoms in a schizophrenia patient is provided in Table 5B. The scale is divided into three parts, a positive scale, which provides a “PANSS positive subscore”, a negative scale, which provides a “PANSS negative subscore”, and general psychopathology scale. The sum of these three parts provides a PANSS total score, which ranges from 30 to 210 (where higher scores indicate more severe symptoms). (See Kay, S. R., et al. “The positive and negative syndrome scale (PANSS) for schizophrenia,” Schizophr Bulletin, 13(2), 261-276 (1987) and Gopal, S., et al. “Improvement of Negative Symptoms in Schizophrenia with Paliperidone Palmitate 1-Month and 3-Month Long-Acting Injectables: Results from a Phase 3 Non-Inferiority Study” Neuropsychiatric Disease and Treatment, 681-690, DOI: 10.2147/NDT.5226296, both of which are incorporated by reference.)
The Efficacy data from Study Nos. 1 and 2 were pooled. The majority of patients in the pooled ITT population completed the DB period (502 patients overall, 66.3%), with similar rates in each treatment group (placebo: 69.8%, 32 mg Roluperidone: 65.3%, and 64 mg Roluperidone: 63.8%) (Table 12). The majority (62.7%) of those who completed the DB period entered the OL period. The most common reason for discontinuation during the DB period among patients overall was withdrawal of consent (15.6%), followed by adverse events (7.3%) and lack of efficacy (5.4%) (Table 12). […] Approximately twice as many patients in the Roluperidone groups (32 mg: 8.5%; 64 mg: 9.1%) discontinued due to adverse events compared with patients in the placebo group (4.3%). More patients in the placebo group discontinued due to lack of efficacy (6.7%) than in the Roluperidone groups (32 mg: 4.4%; 64 mg: 5.1%). The low number of patients who discontinued due to lack of efficacy or withdrawal of consent probably reflects a low level of worsening of positive symptoms.
The integrated analysis supporting the efficacy of Roluperidone as a treatment for the negative symptoms of schizophrenia in adults is presented below.

Substance: 1H-Isoindol-1-one,2-[ [1-[2-(4-fluorophenyl)-2-oxoethyl]-4-piperidinyl]methyl]-2,3-dihydro-, hydrochloride, hydrate (1:1:2) [Roluperidone]
- PANSS positive subscale score, LS mean change from Baseline compared with placebo (32 mg, Week 12, pooled ITT): −0.3
- PANSS total score, LS mean change from Baseline compared with placebo (32 mg, Week 12, pooled ITT): −1.9
- Patients with 20% Reduction in NSFS at Week 12, percent (32 mg, responder analysis): 31%
- Patients with 20% Reduction in PANSS Total Score at Week 12, percent (32 mg, responder analysis): 14%
- Number of Patients with 20% Reduction in PANSS Total Score at Week 12 (32 mg, responder analysis, n/N): 24/167
- Number of Patients with 20% reduction in NSFS at Week 12 (32 mg, responder analysis, n/N): 51/167
- NSFS Score change from Baseline, LS mean (SE) (64 mg, Week 2, pooled ITT): −1.4 (0.15)
- NSFS Score change from Baseline, Mean (SD) (64 mg, Week 2, pooled ITT): −1.4 (2.34)
- NSFS Score change from Baseline, Median (64 mg, Week 2, pooled ITT): −1.0
- NSFS Score, Difference (95% CI) in LS mean (vs placebo) (64 mg, Week 2, pooled ITT): −0.4 (−0.8, −0.0)
- PANSS Negative Subscale Score change from Baseline, LS mean (SE) (64 mg, Week 2, pooled ITT): −1.4 (0.14)
- PANSS Negative Subscale Score change from Baseline, Mean (SD) (64 mg, Week 2, pooled ITT): −1.4 (2.28)
- PANSS Negative Subscale Score change from Baseline, Median (64 mg, Week 2, pooled ITT): −1.0
- PANSS Negative Subscale Score, Difference (95% CI) in LS mean (vs placebo) (64 mg, Week 2, pooled ITT): −0.4
- PANSS Total Score change from Baseline, LS mean (SE) (64 mg, Week 2, pooled ITT): −2.2 (0.44)
- PANSS Total Score change from Baseline, Mean (SD) (64 mg, Week 2, pooled ITT): −2.2 (7.15)
- PANSS Total Score change from Baseline, Median (64 mg, Week 2, pooled ITT): −2.0
- PANSS Total Score, Difference (95% CI) in LS mean (vs placebo) (64 mg, Week 2, pooled ITT): −0.9
- PANSS Positive Subscale Score change from Baseline, LS mean (SE) (64 mg, Week 2, pooled ITT): −0.1 (0.17)
- PANSS Positive Subscale Score change from Baseline, Mean (SD) (64 mg, Week 2, pooled ITT): −0.1 (2.85)
- PANSS Positive Subscale Score change from Baseline, Median (64 mg, Week 2, pooled ITT): 0.0
- PANSS Positive Subscale Score, Difference (95% CI) in LS mean (vs placebo) (64 mg, Week 2, pooled ITT): −0.1
- NSFS Score change from Baseline, LS mean (SE) (64 mg, Week 4, pooled ITT): −2.5 (0.19)
- NSFS Score change from Baseline, Mean (SD) (64 mg, Week 4, pooled ITT): −2.6 (2.73)
- NSFS Score change from Baseline, Median (64 mg, Week 4, pooled ITT): −2.0
- NSFS Score, Difference (95% CI) in LS mean (vs placebo) (64 mg, Week 4, pooled ITT): −1.1
- PANSS Negative Subscale Score change from Baseline, LS mean (SE) (64 mg, Week 4, pooled ITT): −2.6 (0.19)
- PANSS Negative Subscale Score change from Baseline, Mean (SD) (64 mg, Week 4, pooled ITT): −2.8 (2.82)
- PANSS Negative Subscale Score change from Baseline, Median (64 mg, Week 4, pooled ITT): −2.0
- PANSS Negative Subscale Score, Difference (95% CI) in LS mean (vs placebo) (64 mg, Week 4, pooled ITT): −1.2
- PANSS Total Score change from Baseline, LS mean (SE) (64 mg, Week 4, pooled ITT): −4.5 (0.52)
- PANSS Total Score change from Baseline, Mean (SD) (64 mg, Week 4, pooled ITT): −5.1 (7.16)
- PANSS Total Score change from Baseline, Median (64 mg, Week 4, pooled ITT): −5.0
- PANSS Total Score, Difference (95% CI) in LS mean (vs placebo) (64 mg, Week 4, pooled ITT): −2.5
- PANSS Positive Subscale Score change from Baseline, LS mean (SE) (64 mg, Week 4, pooled ITT): −0.2 (0.18)
- PANSS Positive Subscale Score change from Baseline, Mean (SD) (64 mg, Week 4, pooled ITT): −0.4 (2.49)
- PANSS Positive Subscale Score change from Baseline, Median (64 mg, Week 4, pooled ITT): −1.0
- PANSS Positive Subscale Score, Difference (95% CI) in LS mean (vs placebo) (64 mg, Week 4, pooled ITT): −0.5
- NSFS Score change from Baseline, LS mean (SE) (64 mg, Week 8, pooled ITT): −3.4 (0.23)
- NSFS Score change from Baseline, Mean (SD) (64 mg, Week 8, pooled ITT): −3.6 (3.28)
- NSFS Score change from Baseline, Median (64 mg, Week 8, pooled ITT): −3.0
- NSFS Score, Difference (95% CI) in LS mean (vs placebo) (64 mg, Week 8, pooled ITT): −1.2
- PANSS Negative Subscale Score change from Baseline, LS mean (SE) (64 mg, Week 8, pooled ITT): −3.7 (0.23)
- PANSS Negative Subscale Score change from Baseline, Mean (SD) (64 mg, Week 8, pooled ITT): −3.9 (3.27)
- PANSS Negative Subscale Score change from Baseline, Median (64 mg, Week 8, pooled ITT): −3.0
- PANSS Negative Subscale Score, Difference (95% CI) in LS mean (vs placebo) (64 mg, Week 8, pooled ITT): −1.3
- PANSS Total Score change from Baseline, LS mean (SE) (64 mg, Week 8, pooled ITT): −5.7 (0.65)
- PANSS Total Score change from Baseline, Mean (SD) (64 mg, Week 8, pooled ITT): −6.8 (8.79)
- PANSS Total Score change from Baseline, Median (64 mg, Week 8, pooled ITT): −6.0
- PANSS Total Score, Difference (95% CI) in LS mean (vs placebo) (64 mg, Week 8, pooled ITT): −2.5
- PANSS Positive Subscale Score change from Baseline, LS mean (SE) (64 mg, Week 8, pooled ITT): −0.3 (0.20)
- PANSS Positive Subscale Score change from Baseline, Mean (SD) (64 mg, Week 8, pooled ITT): −0.6 (2.61)
- PANSS Positive Subscale Score change from Baseline, Median (64 mg, Week 8, pooled ITT): −1.0
- PANSS Positive Subscale Score, Difference (95% CI) in LS mean (vs placebo) (64 mg, Week 8, pooled ITT): −0.5
- NSFS Score change from Baseline, LS mean (SE) (64 mg, Week 12, pooled ITT): −3.9 (0.26)
- NSFS Score change from Baseline, Mean (SD) (64 mg, Week 12, pooled ITT): −4.1 (3.64)
- NSFS Score change from Baseline, Median (64 mg, Week 12, pooled ITT): −3.5
- NSFS Score, Difference (95% CI) in LS mean (vs placebo) (64 mg, Week 12, pooled ITT): −1.3
- PANSS Negative Subscale Score change from Baseline, LS mean (SE) (64 mg, Week 12, pooled ITT): −4.1 (0.27)
- PANSS Negative Subscale Score change from Baseline, Mean (SD) (64 mg, Week 12, pooled ITT): −4.4 (3.75)
- PANSS Negative Subscale Score change from Baseline, Median (64 mg, Week 12, pooled ITT): −4.0
- PANSS Negative Subscale Score, Difference (95% CI) in LS mean (vs placebo) (64 mg, Week 12, pooled ITT): −1.3
- PANSS Total Score change from Baseline, LS mean (SE) (64 mg, Week 12, pooled ITT): −6.3 (0.70)
- PANSS Total Score change from Baseline, Mean (SD) (64 mg, Week 12, pooled ITT): −7.7 (9.43)
- PANSS Total Score change from Baseline, Median (64 mg, Week 12, pooled ITT): −7.0
- PANSS Total Score, Difference (95% CI) in LS mean (vs placebo) (64 mg, Week 12, pooled ITT): −2.8
- NSFS Emotional Experience Score, Change from Baseline (LS Means [SEM]) (64 mg, Week 12, ITT): −1.6 (0.13)
- NSFS Emotional Expression Score, Change from Baseline (LS Means [SEM]) (64 mg, Week 12, ITT): −2.3 (0.16)
- NSFS, Change from Baseline (LS Means [SEM]) (64 mg, Week 12, ITT): −3.9 (0.26)
- PANSS General Psychopathology Subscale, Change from Baseline (LS Means [SEM]) (64 mg, Week 12, ITT): −2.2 (0.37)
- PANSS Negative Symptoms Subscale, Change from Baseline (LS Means [SEM]) (64 mg, Week 12, ITT): −4.1 (0.27)
- PANSS Positive Symptoms Subscale, Change from Baseline (LS Means [SEM]) (64 mg, Week 12, ITT): −0.2 (0.21)
- PANSS Total Score, Change from Baseline (LS Means [SEM]) (64 mg, Week 12, ITT): −6.3 (0.70)
- NSFS, LS mean change from Baseline compared with placebo (64 mg, Week 12, normal BMI (<25 kg/m^2) subgroup, pooled ITT): −1.7
- NSFS, LS mean change from Baseline compared with placebo (64 mg, Week 12, obese (≥30 kg/m^2) subgroup, pooled ITT): −0.1
- NSFS, LS mean change from Baseline compared with placebo (64 mg, Week 12, overweight BMI (25 to <30 kg/m^2) subgroup, pooled ITT): −1.4
- Patients with high improvement in NSFS (magnitude of change >8) (64 mg, Week 12, pooled): 13%
